From patent US7288567B2, “Inhibitors of histone deacetylase” (Methylgene Inc., priority 2000, dated 2007)
pIC50: −log10 of the molar value.

What was measured:
[1] = tested on: histone deacetylase enzyme in nuclear extracts from H446 cells (pooled HDACs); assay: Histone deacetylase inhibition, H446 nuclear extracts (pooled HDACs); assay type: biochemical, human; conditions: for pIC50: H446 nuclear extract, [3H]-acetylated histone substrate; for pooled HDACs percent inhibition: percent inhibition at 20 μM (footnote)
Description: HDAC inhibitors were screened against histone deacetylase enzyme in nuclear extracts prepared from the human small cell lung cancer cell line H446 (ATTC HTB-171) and against a cloned recombinant human HDAC-1 enzyme expressed and purified from a Baculovirus insect cell expression system.
(§1) For deacetylase assays, 20,000 cpm of the [^3H]-metabolically labeled acetylated histone substrate (M. Yoshida et al., J. Biol. Chem. 265(28): 17174-17179 (1990)) was incubated with 30 μg of H446 nuclear extract or an equivalent amount of the cloned recombinant hHDAC-1 for 10 minutes at 37° C. The reaction was stopped by adding acetic acid (0.04 M, final concentration) and HCl (250 mM, final concentration). The mixture was extracted with ethyl acetate and the released [^3H]-acetic acid was quantified by scintillation counting. For inhibition studies, the enzyme was preincubated with compounds at 4° C. for 30 minutes prior to initiation of the enzymatic assay. IC50 values for HDAC enzyme inhibitors were determined by performing dose response curves with individual compounds and determining the concentration of inhibitor producing fifty percent of the maximal inhibition.

[2] = molecular target: T1, recombinant human HDAC-1 enzyme (rHDAC-1) (Homo sapiens, UniProt Q13547); assay: Histone deacetylase inhibition, recombinant human HDAC-1; assay type: biochemical; conditions: cloned recombinant human HDAC-1, Baculovirus insect cell expression; read-out: rHDAC-1 IC50
T1 construct: made in house; host or cells: Baculovirus insect cell expression system
Description: as §1, with “The” for “For deacetylase assays, 20,000 cpm of the [^3H]-metabolically labeled acetylated histone substrate (M. Yoshida et al., J. Biol. Chem. 265(28): 17174-17179 (1990)) was incubated with 30 μg of H446 nuclear extract or an equivalent amount of the cloned recombinant hHDAC-1 for 10 minutes at 37° C. The”

T1 sequence (Q13547 whole entry): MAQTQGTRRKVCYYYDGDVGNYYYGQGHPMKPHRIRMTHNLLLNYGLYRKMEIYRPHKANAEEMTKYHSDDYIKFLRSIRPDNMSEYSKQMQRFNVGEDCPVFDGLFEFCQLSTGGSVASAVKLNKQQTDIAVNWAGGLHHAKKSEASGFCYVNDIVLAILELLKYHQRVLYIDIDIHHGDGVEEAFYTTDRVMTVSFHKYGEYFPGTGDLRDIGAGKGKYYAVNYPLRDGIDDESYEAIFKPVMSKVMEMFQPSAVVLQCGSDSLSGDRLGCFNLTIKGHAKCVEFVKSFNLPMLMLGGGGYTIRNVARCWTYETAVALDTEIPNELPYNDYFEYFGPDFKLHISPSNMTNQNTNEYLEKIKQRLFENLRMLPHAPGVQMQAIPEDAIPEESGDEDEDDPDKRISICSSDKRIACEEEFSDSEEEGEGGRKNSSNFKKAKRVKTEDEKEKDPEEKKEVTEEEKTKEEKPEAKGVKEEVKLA

Compound | pIC50 [1] | pIC50 [2] | pooled HDACs percent inhibition [1] | pooled HDACs percent inhibition @ 1 μM ([1]; @ 1 μM)
O=C(CCCCCCC(=NO)c1cc2ccccc2o1)NO (mixture of isomers) [Compound 98, N-Hydroxy-8-(E)-oximino-8-(2-benzofuryl)octanamide] | 7.40 | 7.52 |  | 
Nc1ccccc1NC(=O)CCCCCCC(=NO)c1ccc2ccccc2c1 (mixture of isomers) [Compound 106, N-(2-Aminophenyl)-8-(E)-oximino-8-(2-naphthyl)octanamide] | < 4.70 | 5.40 |  | 
O=C(CCCCCC/C(=N\O)c1ccc(-c2ccccc2)cc1)NO [(E)-51h, N-Hydroxy-8-(E)-oximino-8-(4-biphenyl)octanamide] |  |  | 99% | 
O=C(CCCCCC/C(=N/O)c1ccc(-c2ccccc2)cc1)NO [(Z)-51h, N-Hydroxy-8-(Z)-oximino-8-(4-biphenyl)octanamide] |  |  | 75% | 
COc1ccc(C(C/C=C/C=C/C(=O)NO)OC)cc1 (centres unmarked) [Compound 6, N-Hydroxy-7-methoxy-7-(4-methoxyphenyl)-2,4-heptadienamide] | 5.52 | 6.60 |  | 
COC(C/C=C/C=C/C(=O)NO)c1ccccc1 (centres unmarked) [Compound 12, N-Hydroxy-7-methoxy-7-phenyl-2,4-heptadienamide] | 5.03 |  |  | 
COC(C/C=C/C=C/C(=O)NO)c1ccc(N(C)C)cc1 (centres unmarked) [Compound 17, N-Hydroxy7-methoxy-7-[4-(N,N-dimethylamino)phenyl]-2,4-heptadienamide] | 5.40 | 6.60 |  | 
COC(C/C=C/C=C/C(=O)Nc1ccccc1N)c1ccccc1 (centres unmarked) [Compound 19, N-(2-Aminophenyl)-7-methoxy-7-phenyl-2,4-heptadienamide] | < 4.00 | > 4.70 |  | 
COc1ccc(C(OC)C(C)(C)/C=C/C=C/C(=O)NO)cc1 (centres unmarked) [Compound 26, N-Hydroxy-6,6-dimethyl-7-methoxy-7-(4-methoxyphenyl)-2,4-heptadienamide] | 5.30 | 6.00 |  | 
COc1ccc(C(OC)C(C)(C)/C=C/C=C/C(=O)Nc2ccccc2N)cc1 (centres unmarked) [Compound 27, N-(2-Aminophenyl)-6,6-dimethyl-7-methoxy-7-(4-methoxyphenyl)-2,4-heptadienamide] | < 4.00 |  |  | 
COc1ccc(C(OC)C(C)(C)CCCCC(=O)NO)cc1 (centres unmarked) [Compound 28, N-Hydroxy-6,6-dimethyl-7-methoxy-7-(4-methoxyphenyl)heptanamide] | 5.40 | 7.00 |  | 
COC(c1ccc(N(C)C)cc1)C(C)/C=C(C)/C=C/C(=O)NO (centres unmarked) [Compound 33, N-Hydroxy-4,6-dimethyl-7-methoxy-7-[4-(N,N-dimethylamino)phenyl]-2,4-heptadienamide] | < 5.00 |  |  | 
CC(/C=C/C(=O)NO)=C\C(C)Cc1ccc(N(C)C)cc1 (centres unmarked) [Compound 38, N-Hydroxy-4,6-dimethyl-7-[4-(N,N-dimethylamino)phenyl]-2,4-heptadienamide] | < 4.70 |  |  | 
O=C(CCCCCNS(=O)(=O)c1ccccc1)NO [Compound 47, N-Hydroxy-6-(benzenesulfonylamino)hexanamide] | 5.35 | 6.30 |  | 
COc1ccc(C(=O)C(C)(C)CCCCC(=O)NO)cc1 [Compound 58, N-Hydroxy-6-methyl-6-(4-methoxybenzoyl)-heptanamide] | 5.52 | 6.60 |  | 
CC(CCC(=O)NO)CC(C)C(=O)c1ccc(N(C)C)cc1 (centres unmarked) [Compound 62, N-Hydroxy-4-Methyl-6-[4-(N,N-dimethylamino)benzoyl]heptanamide] | 5.96 |  |  | 
Nc1ccccc1NC(=O)CCCCCCC(=O)c1ccc2ccccc2c1 [Compound 63, N-(2-Aminophenyl)-7-(2-naphthoyl)heptanamide] | < 4.70 | 5.66 |  | 
O=C(CCCCCCC(=O)c1ccc2ccccc2c1)Nc1ccccc1O [Compound 66, N-(2-Hydroxyphenyl)-7-(2-naphthoyl)heptanamide] |  | 5.64 | 0% | 
O=C(CCCCCCC(=O)c1ccc(-c2ccccc2)cc1)Nc1ccccc1O [Compound 74, N-(2-Hydroxyphenyl)-7-[(4-biphenyl)carbonyl]heptanamide] |  | 5.11 | 0% | 
Nc1ccccc1CNC(=O)CCCCCCC(=O)c1ccc(-c2ccccc2)cc1 [Compound 75, N-(2-Aminobenzyl)-7-[(4-biphenyl)carbonyl]heptanamide] |  | 5.08 | 0% | 
COc1ccc(NC(=O)CCCCCCC(=O)c2ccc(-c3ccccc3)cc2)c(N)c1 [Compound 81, N-(4-(3-Amino)anisole)-7-[(4-biphenyl)carbonyl]heptanamide] |  | 4.60 | 27% | 
Nc1ccccc1NC(=O)NCCCCCCC(=O)c1ccccc1 [Compound 89, N-(2-Aminophenyl)-N′-[6-(benzoyl)hexyl]urea] |  | 4.79 | 0% | 
Nc1ccccc1NC(=O)NCCCCCC(=O)c1ccc(-c2ccccc2)cc1 [Compound 92, N-(2-Aminophenyl)-N′-[5-((4biphenyl)carbonyl)pentyl]urea] |  | 4.80 | 0% | 
O=C(NCCCCCC(=O)c1ccc(-c2ccccc2)cc1)Nc1ccccc1O [Compound 93, N-(2-Hydroxyphenyl)-N′-[5-((4-biphenyl)carbonyl)pentyl]urea] |  | 5.19 | 0% | 
COc1ccc(/C(CCCCCCC(=O)NO)=N/O)cc1 [Compound 96, N-Hydroxy-8-(E)-oximino-8-(4-methoxyphenyl)octanamide] | 7.00 | 7.46 |  | 
O=C(CCCCCC/C(=N\O)c1ccc2ccccc2c1)NO [Compound 97, N-Hydroxy-8-(E)-oximino-8-(2-naphthyl)octanamide] | 7.52 |  |  | 
O=C(CCCCCCC(=O)c1ccccn1)NO [Compound 141a2, N-Hydroxy-7-[(2-pyridyl)carbonyl]heptanamide] |  |  |  | 12%@ 1 μM
CC(CCCCCC(=O)c1ccc2ccccc2c1)C(=O)NO (centres unmarked) [Compound 175, N-Hydroxy-2-methyl-7-(2-naphthoyl)heptanamide] | 5.60 |  |  | 
Nc1ccccc1NC(=O)CCCCCn1cnc2ccccc2c1=O [Compound 239a, N-(2-Aminophenyl)-6-[3-(4-oxo-4H-quinazolinyl)]hexanamide] |  |  | 0% | 
Nc1ccccc1NC(=O)CCCCCN1C(=O)c2cccc3cc(O)cc(c23)C1=O [Compound 251a, N-(2-Aminophenyl)-6-[2-(5-hydroxy-1,3-dioxo-1H,3H-benzo[de]isoquinolinyl)]hexanamide] |  |  | 0% | 

Second part, led by results:

pIC50 [1] | pIC50 [2] | Compound | pooled HDACs percent inhibition [1] | pooled HDACs percent inhibition @ 1 μM ([1]; @ 1 μM)
6.46 | 7.00 | O=C(CCCCCCC(=NO)c1ccccc1)NO [Compound 51a, N-Hydroxy-8-oximino-8-phenyloctanamide] |  | 
6.05 | 7.00 | O=C(CCCCCCC(=NO)c1ccco1)NO [Compound 51i, N-Hydroxy-8-oximino-8-(2-furanyl)octanamide] |  | 
6.26 | 7.22 | O=C(CCCCCCC(=O)c1ccc(C(F)(F)F)cc1)NO [Compound 52c, N-hydroxy-7-(4-trifluoromethylbenzoyl)heptanamide] |  | 
7.30 |  | O=C(CCCCCCC(=O)c1ccc(Br)cc1)NO [Compound 52d, N-hydroxy-7-(4-bromobenzoyl)heptanamide] |  | 
6.26 | 8.00 | O=C(CCCCCCC(=O)c1cccc2ccccc12)NO [Compound 52f, N-hydroxy-7-(1-naphthoyl)heptanamide] |  | 
5.52 | 7.00 | O=C(CCCCCCC(=O)c1ccco1)NO [Compound 52i, N-hydroxy-7-(2-furanoyl)-heptanamide] |  | 
5.52 | 6.35 | O=C(CCCCCCC(=O)c1ccoc1)NO [Compound 52j, N-hydroxy-7-(3-furanoyl)heptanamide] |  | 
6.05 |  | O=C(CCCCCCC(=O)c1cccs1)NO [Compound 52k, N-hydroxy-7-(2-thiophene)carbonylheptanamide] |  | 
6.52 | 7.52 | O=C(CCCCCCC(=O)c1cc2ccccc2o1)NO [Compound 52l, N-hydroxy-7-(2-benzofuran)carbonylheptanamide] |  | 
7.00 | 8.00 | O=C(CCCCCCC(=O)c1cc2ccccc2s1)NO [Compound 52m, N-hydroxy-7-(2-benzothiophene)carbonylheptanamide] |  | 
 | 6.00 | COc1ccc(C(=O)CCCCCCC(=O)Nc2ccccc2N)cc1 [Compound 53b, N-(2-Aminophenyl)-7-(p-anisoyl)heptanamide] | 0% | 
 | 5.70 | Nc1ccccc1NC(=O)CCCCCCC(=O)c1cccc2ccccc12 [Compound 53f, N-(2-Aminophenyl)-7-(1-naphthoyl)heptanamide] | 3% | 
7.32 |  | O=C(CCCCCCC(=O)c1ccc(N2CCCCC2)cc1)NO [Compound 138h, N-Hydroxy-7-[4-(1-piperidinyl)benzoyl]heptanamide] |  | 
